Experimental findings from USRE47193E1, “Selectively substituted quinoline compounds” (EISAI R&D MANAGEMENT CO., LTD., priority 2013, dated 2019) are described below.

Molecules are shown by their SMILES.

The assay concerns IFN-regulated genes. Kind of assay: Interferon gene expression in whole blood (qPCR TLDA panel, IFN score), Pristane model. The class given is in vivo, mouse. The note with it: for disease up-regulated IFN-regulated genes reduced by treatment vs. vehicle: 13 weeks of treatment, Student's t-test. How it is done: FIG. 3A through FIG. 3E show results of testing compound ER-899742 in the Pristane: DBA/1 strain lupus disease model. Figure Legend: Female DBA/1 mice at 9 weeks of age were given an intraperitoneal injection of 0.5 ml pristane or PBS. At 9 weeks post-pristane animals were bled for auto-antibody titers. Once-a-day oral dosing with Vehicle (Veh; 0.5% methyl-cellulose) or 33 mg/kg, 100 mg/kg, or 300 mg/kg of ER-899742 was begun 10 weeks after pristane injection and continued for 13 weeks of treatment. Mice were euthanized after 13 weeks of compound treatment, and anti-dsDNA (FIG. 3A), anti-Sm/nRNP (FIG. 3B), anti-histone (FIG. 3C) and anti-RiboP (FIG. 3D) titers were measured in blood plasma samples by ELISA (statistical significance of treatment versus vehicle determined by ANOVA with Dunnett's post-test). (FIG. 3E) The expression of IFN-regulated genes in whole blood was measured by a qPCR panel after 13 weeks of treatment with 300 mg/kg of ER-899742, and an IFN gene signature score was calculated (see Pharmacology Materials and Methods section for details regarding IFN score calculation).
FIG. 7A through FIG. 7G show the effect of dosing with ER-899742 in Pristane-induced disease in DBA/1J mice. Figure Legend: Female DBA/1 mice at 9 weeks of age were given an intraperitoneal injection of 0.5 ml pristane or PBS. At 10 weeks post-pristane animals were bled for autoantibody titers. Once-a-day oral dosing with Vehicle (Veh; 0.5% methyl-cellulose) or 33 mg/kg, or 300 mg/kg of ER-899742 was begun 11 weeks after pristane injection and continued for 14 weeks of treatment. Mice were euthanized after 14 weeks of compound treatment, and anti-dsDNA (FIG. 7A), anti-RiboP (FIG. 7B), anti-Sm/nRNP (FIG. 7C), and anti-histone (FIG. 7D) titers were measured in blood plasma samples by ELISA (statistical significance of treatment versus vehicle determined by ANOVA with Dunnett's post-test). The same plasma was used to measure total IgG titers by ELISA at the end of dosing (FIG. 7E). […] Pristane-treated mice in this experiment developed arthritis, with swollen joints in the rear paws. Arthritis scores were assigned according to severity, each paw was scored on a scale of 0-4 based on signs of swelling and inflammation. Scores were summed for the two hind paws assessed on each animal, and graphed in FIG. 7F with statistical assessment as for ELISA titers above.
Assessment of interferon gene expression in whole blood. The expression of IFN-regulated genes in whole blood was measured by qPCR. Briefly, mice were euthanized, blood was collected via the vena cava, and 100 ul was preserved in tubes containing RNAlater (Ambion, Austin Tex.). Total RNA was isolated using the Mouse RiboPure Blood RNA Isolation Kit (Ambion). RNA concentrations were determined using a NanoDrop ND-1000 spectrophotometer (Thermo Scientific, Waltham Mass.). First strand cDNA was synthesized from 100 ng total RNA using SuperScript® VILO™ Master Mix (Life Technologies, Grand Island, N.Y.). After reverse transcription, cDNA was diluted with nuclease-free water and mixed with TaqMan® Fast Advanced Master Mix (Applied Biosystems). The mixture was then applied to a custom TaqMan® Low Density Array (TLDA) manufactured by Applied Biosystems, and qPCR was performed on the ABI 7900HT Fast Real-time PCR System (Applied Biosystems). Raw data was collected using RQ Manager 1.2.1 (Applied Biosystems) and analyzed using GeneData Analyst 2.2 software (GeneData).
The TLDA panel contained as many as 45 target genes chosen from Table 9 below, and 3 housekeeping genes for normalization. The housekeeping gene Hprt1 was chosen for normalization based on coefficient-of-variation. Relative quantities were determined for the target genes and used to calculate a fold change for each diseased mouse relative to the non-diseased control group receiving intraperitoneal PBS injection only. […]

For `C[C@@H]1CN(c2ccc(C#N)c3ncccc23)C[C@H](C(=O)NC2CCN(C)CC2)O1` [ER-899464, (2R,6R)-4-(8-cyanoquinolin-5-yl)-6-methyl-N-(1-methylpiperidin-4-yl)morpholine-2-carboxamide], the “disease up-regulated IFN-regulated genes reduced by treatment vs. vehicle” value is on record as “none of the disease up-regulated genes shown in FIG. 3B were affected”.

Take `C[C@@H]1CN(c2ccc(C#N)c3ncccc23)C[C@H](C(=O)N[C@H]2CNC[C@H]2F)O1.Cl` [ER-899742, (2R,6R)-4-(8-cyanoquinolin-5-yl)-N-[(3S,4R)-4-fluoropyrrolidin-3-yl]-6-methylmorpholine-2-carboxamide hydrochloride]: the “disease up-regulated IFN-regulated genes reduced by treatment vs. vehicle” value is on record as “six genes were significantly reduced”. In addition, under “13 weeks of treatment with 300 mg/kg”, the “interferon score, treated vs vehicle-treated” value was “no significant difference”. The “interferon score, treated vs vehicle-treated” value (14 weeks of treatment experiment (FIG. 7)) is given as “no significant difference”. Also, the “disease-related interferon-modulated genes downregulated” value (14 weeks of treatment experiment (FIG. 7G)) is “downregulation of five out of 28 disease-related interferon-modulated genes”. Further, under “Pristane model, summary of key findings”, the “expression of IFN-modulated genes in whole blood” value was “Decreased expression of some IFN-modulated genes”.
